Experimental data published in PMC3936431 (Biomolecules & Therapeutics, 2014).

Key:
[1] = In vitro release, USP paddle method, phosphate buffer pH 7.4; format: physicochemical; settings: in the first 30 min; paddle 100 rpm, phosphate buffer pH 7.4, 37°C
[2] = Stability in stock solutions and plasma samples; format: physicochemical, rabbits; settings: for stock solution stability, mean %change: room temperature 12 h and 4°C 30 days
[3] = Pharmacokinetic studies after single intravenous or rectal administration; settings: for Tmax / AUC(0-inf) / AUC(0-t): New Zealand white, rabbit, in vivo; for AUC(0-inf): AUC0-∞; for AUC(0-inf) / AUC(0-t) / AUC0-∞ / AUC0–30h: rabbits, plasma; for AUC(0-t): AUC0–30h
[4] = 100 mg/kg, rectal administration (suppository)
[5] = iv, 50 mg/kg, intravenous administration
[6] = intravenous administration, 50 mg/kg
[7] = rectal administration (suppository), 100 mg/kg

| drug released [1] [%] | Tmax ([3]; 100 mg/kg) [h] | AUC(0-inf) [3, 4] [ng·h/mL] | AUC(0-t) [3, 4] [ng·h/mL] | Tmax ([3]; iv, 50 mg/kg) [h] | AUC(0-inf) [3, 5] [ng·h/mL] | AUC(0-t) [3, 5] [ng·h/mL] | AUC0-∞ [3, 6] [ng·h/mL] | AUC0–30h [3, 6] [ng·h/mL] | AUC0-∞ [3, 7] [ng·h/mL] | AUC0–30h [3, 7] [ng·h/mL] | Compound | stock solution stability ([2]; 4°C for 30 days) | stock solution stability, mean %change [2] [%] | stock solution stability ([2]; room temperature for 12 h) |
| --- | --- | --- | --- | --- | --- | --- | --- | --- | --- | --- | --- | --- | --- | --- |
| 95 | 4 | 41600 ± 7200 | 32200 ± 6200 | 0.25 | 82300 ± 9500 | 71300 ± 8800 | 82330 ± 9470 | 71310 ± 8750 | 41620 ± 7240 | 32150 ± 6150 | CCc1c2c(nc3ccc(OC(=O)N4CCC(N5CCCCC5)CC4)cc13)-c1cc3c(c(=O)n1C2)COC(=O)[C@]3(O)CC [irinotecan, 7-ethyl-10-[4-(1-piperidino)-1-piperidino]-carbonyloxy-camptothecin] | stable | < 7.7 | stable |
| – | – | – | – | – | – | – | – | – | – | – | CC[C@@]1(O)C(=O)OCc2c1cc1n(c2=O)Cc2cc3ccccc3nc2-1 [IS, camptothecin] | stable | < 7.7 | stable |
